What was measured:
[1] = Rish et al. 2007; cited from earlier work
[2] = test system: four clinical isolates of MRSA; assay: aPDI with CFL irradiation, summary over MRSA isolates; format: cell-based, Staphylococcus aureus
Experimental: In all cases, we observed potent aPDI with bactericidal activities at 1-5 μM (Table 1). The consistent response to Ga-PpIX treatment is encouraging, as variable efficacy between strains is a known problem in antimicrobial photodynamic therapy (Nakonieczna, J. et al., Photodiagn. Photodyn. Ther. 2012, 9, 359-361). […] We note that PpIX is already approved as a photosensitizer for topical treatment of several skin diseases, but its utility is limited by poor photostability.
A 20-W compact fluorescent lightbulb (CFL; Sunlite SL20/BLB) housed in an ellipsoidal reflector dome was used for aPDI, at an emission wavelength at 406 nm and a mean power density of 12.4 mW/cm^2 (after applying a 408-nm shortpass filter). Antimicrobial assays were performed on planktonic bacteria at 10^7 cfu/mL with variable exposure times to CFL irradiation, followed by plating on agar and incubation at 37° C. In a typical experiment, bacterial suspensions were transferred into 96-well plates then treated with 100-μL aliquots of Ga-PpIX or PpIX solution, with final concentrations ranging from 320 to 0.31 μg/mL, followed immediately with CFL irradiation for 5 to 15 minutes. […] Bacterial counts were determined by the drop-plate method using TS-agar plates, and reported in colony-forming units per milliliter (cfu/mL).

[3] = test system: S. aureus and clinical isolates of MRSA; assay: aPDI with CFL irradiation, summary over strains; format: cell-based, Staphylococcus aureus; conditions: 15 minutes of irradiation, compact fluorescence lightbulb (λmax 406 nm, 12.4 mW/cm^2)
Experimental: A 20-W compact fluorescent lightbulb (CFL; Sunlite SL20/BLB) housed in an ellipsoidal reflector dome was used for aPDI, at an emission wavelength at 406 nm and a mean power density of 12.4 mW/cm^2 (after applying a 408-nm shortpass filter). Antimicrobial assays were performed on planktonic bacteria at 10^7 cfu/mL with variable exposure times to CFL irradiation, followed by plating on agar and incubation at 37° C. In a typical experiment, bacterial suspensions were transferred into 96-well plates then treated with 100-μL aliquots of Ga-PpIX or PpIX solution, with final concentrations ranging from 320 to 0.31 μg/mL, followed immediately with CFL irradiation for 5 to 15 minutes. The irradiated bacteria were plated onto agar in serial tenfold dilutions (10^7-10^1 cfu/mL); controls included one set of wells without photosensitizer, and one set of wells with photosensitizer but without 15 min irradiation, prior to plating (dark toxicity). Bacterial counts were determined by the drop-plate method using TS-agar plates, and reported in colony-forming units per milliliter (cfu/mL).

CSHR-expressing bacteria = assay: Bacterial uptake of GaPpIX, time to saturation; format: cell-based
Experimental: Bacteria were cultured and assayed in iron-deficient media unless otherwise noted. A stock solution of Ga-PpIX (14.6 μM) was prepared by dispersing 5 mg in 1 mL of 10% DMSO in PBS for 10 minutes in an ultrasonic cleaning bath protected from light, followed by filtration and 10× dilution in PBS just prior to use. Bacterial suspensions (0.5 mL) were treated with freshly prepared solutions of PpIX derivatives for specified periods (5-15 min), then harvested by centrifugation at 5.2 g for 5 minutes, redispersed twice in 0.5 mL deionized water, and centrifuged a third time. A 10-μL aliquot of concentrated bacteria was deposited onto a glass slide and dried in air for 20 min, then imaged by fluorescence microscopy as described above. For details on fluorescence image processing and quantitative analysis, see Supporting Information.
Darkfield and fluorescent images were acquired in succession, with the former used to map regions of interest (ROIs) by tracing the outlines of bacteria (FIG. 8). Three images were acquired for each sample; in each case, the tracing map was overlaid onto the fluorescence image to calculate pixel intensities within each ROI, using the mean pixel intensity for quantitative analysis. […]

[4] = Photophysical measurements (absorption, fluorescence quantum yield); format: physicochemical
Source text: Hemin chloride and all reagents were obtained from commercial sources, and used as received unless otherwise noted. Dimethyl sulfoxide (DMSO) was distilled over CaH2 under reduced pressure. Deionized water was obtained from an ultrafiltration system (Milli-Q, Millipore) with a resistivity >18 MΩ·cm, and passed through a 0.22-μm filter to remove particulate matter. Absorption spectra were collected on a Varian Cary50 spectrometer; fluorescence emission data were collected on a Cary Eclipse fluorimeter with a gate time of 5 ms. ^1H NMR spectra were obtained in CDCl3 or DMSO-d6 using a Varian 800-MHz spectrometer; all chemical shifts (δ) reported in ppm.
The quantum yield of Ga-PpIX in deaerated DMSO was determined to be 6.3%, using Ru(II)(bipy)3Cl2 in aerated acetonitrile as a standard.

HEK cells = assay: Cytotoxicity against HEK cells; conditions: read-out: IC50 (cytotoxicity)
S. aureus = assay: aPDI with 405-nm LED bar, summary over strains; format: cell-based, Staphylococcus aureus; conditions: 10 seconds, 405-nm light-emitting diode bar (99 mW/cm^2), fluence about 1 J/cm^2
Experimental: Antibacterial activity assay general protocol: Used LED light to test conditions. Bacteria were grown in TS broth, followed by 3 mM bipyridine in TS broth until log phase. Bacteria were then diluted with PBS, to OD 0.1 (˜10^) and then to ˜10^7 cfu/mL. 100 uL of bacteria were placed in 96 well plates with the appropriate GaPpIX concentration. 2× serial dilutions were then done to obtain other GaPpIX concentrations. Each concentration was done in triplicate. Bacteria were left incubating and irradiating for different amount of times at different light powers or left in the dark. 10× Serial dilutions were done and bacteria were plated for colony counting using the drop-plate technique. Colonies were counted after 24 hours. As reported herein, a 3-log reduction equals measurable antimicrobial action; a 6-log reduction equals total eradication.

Ga(III)-protoporphyrin [Ga-PpIX (1)]
molar extinction coefficient, previous reports [1]: 250000 M⁻¹ cm⁻¹ | bactericidal activities (aPDI) [2]: 1 to 5 µM | GaPpIX concentration for 3-log reduction by aPDI [3]: 0.5-4.5 μM | time to saturation of uptake (CSHR-expressing bacteria): under 15 minutes | molar extinction coefficient ε ([4]; DMSO, λmax=410 nm, 0.4-10 μM): 154000 M⁻¹ cm⁻¹ | fluorescence quantum yield ([4]; deaerated DMSO, Ru(II)(bipy)3Cl2 in aerated acetonitrile as standard): 6.3% | IC50 (HEK cells): > 10 µM | GaPpIX concentration showing aPDI efficacy (S. aureus): 0.06 to 0.12 µM

Source: patent publication US10722582B2, “Targeted antimicrobial photodynamic therapy” (Purdue Research Foundation, priority 2018, dated 2020)
